Results as given in paper PMC5382172 (Frontiers in Molecular Neuroscience, 2017).
Changes are numbered by the printed parent chain. Names and notes keep the numbering of the source. Blank lines part the entries; values can stand above or below the molecule they belong to.

Tests used:
GluClαWT/βWT receptor [1] = target: T1, GluClαWT/βWT receptor (Caenorhabditis elegans, UniProt G5EBR3+Q17328); test: Whole-cell patch clamp in CHO cells, GluClαWT/βWT receptor; assay type: cell-based
T1 construct: entry codes of the full-length subunits used in this study; expressed in transfected cells; host or cells: CHO cells, transient co-transfection 1:1, pcDNA3.1
T1 sequence (G5EBR3 21-461): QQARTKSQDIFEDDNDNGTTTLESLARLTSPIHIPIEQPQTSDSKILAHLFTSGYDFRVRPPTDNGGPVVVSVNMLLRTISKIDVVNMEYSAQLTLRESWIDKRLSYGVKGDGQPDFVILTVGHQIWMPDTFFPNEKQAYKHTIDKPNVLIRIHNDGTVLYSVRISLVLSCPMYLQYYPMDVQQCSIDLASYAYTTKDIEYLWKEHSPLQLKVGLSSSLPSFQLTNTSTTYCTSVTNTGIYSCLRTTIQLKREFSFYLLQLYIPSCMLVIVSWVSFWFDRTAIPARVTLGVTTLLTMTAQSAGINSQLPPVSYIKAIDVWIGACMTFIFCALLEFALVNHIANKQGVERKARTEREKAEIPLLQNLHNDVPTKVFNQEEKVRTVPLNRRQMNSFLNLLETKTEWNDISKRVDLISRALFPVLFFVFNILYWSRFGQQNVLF
T1 sequence (Q17328 23-434): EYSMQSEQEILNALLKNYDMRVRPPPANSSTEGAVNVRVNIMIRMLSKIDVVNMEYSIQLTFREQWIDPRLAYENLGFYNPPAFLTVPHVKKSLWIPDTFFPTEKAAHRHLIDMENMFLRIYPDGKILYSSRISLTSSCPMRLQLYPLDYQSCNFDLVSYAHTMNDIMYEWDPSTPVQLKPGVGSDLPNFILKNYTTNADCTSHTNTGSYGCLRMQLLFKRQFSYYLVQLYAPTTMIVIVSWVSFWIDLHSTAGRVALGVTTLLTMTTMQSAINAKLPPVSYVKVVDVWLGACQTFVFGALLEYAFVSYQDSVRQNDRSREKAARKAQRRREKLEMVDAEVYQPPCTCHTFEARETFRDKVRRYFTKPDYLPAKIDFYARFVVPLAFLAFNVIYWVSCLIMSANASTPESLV
Experimental: (§1) Chinese hamster ovary (CHO) cells were cultured as previously (Bar-Lev et al., [2011]) in Dulbecco’s Modified Eagle Medium (DMEM) containing 10% fetal calf serum, 2 mM glutamax, 100 Units/ml penicillin G and 100 μg/ml streptomycin, and grown in 5% CO2 at 37°C under 90%–95% humidity. The cells were seeded on glass coverslips (13-mm diameter) placed in a 24-multiwell plate. […] For the expression of GluCl receptors, cells were transiently co-transfected with pcDNA3.1 plasmids containing the ORFs of interest using transit-LT1 transfection reagent (Mirus, Madison, WI, USA), according to the manufacturer’s protocol. The cDNAs encoding the C. elegans GluClα (GLC-1) or its mutated versions and the GluClβ (GLC-2) subunits (200–600 ng per well) were used at 1:1 ratio. The pIRES-CD8 plasmid (200 ng per well) was added to enable the visualization of the expressing cells by beads coated with anti-CD8 antibodies (Invitrogen). For high-level expression of the GluClαF276A/βWT mutant receptor in experiments assigned to determine its IVM-EC50, we used the X-tremeGENE HP DNA Transfection Reagent (Roche Life Science). Recordings were performed 72–96 h following the transfection.
(§2) Whole-cell patch clamp recordings were performed as described previously (Bar-Lev et al., [2011]) in CHO cells that were prepared as detailed above. The normal external solution (NES) contained (in millimolar): 140 NaCl, 2.8 KCl, 2 CaCl2, 2 MgCl2, 10 glucose and 10 HEPES, adjusted to pH 7.35 with NaOH (310 mOsm/L). The pipette solution contained (in millimolar): 130 KCl, 4 MgCl2, 4 Na2ATP, 1 EGTA and 10 HEPES, adjusted to pH 7.35 with KOH (290 mOsm/L). The osmolarity of these solutions was maintained by adding sucrose. The electrode resistance was 6–10 MΩ when filled with the pipette solution. External solutions were applied onto the cell by using the VC-77SP fast-step system (Warner Instruments, Hamden, CT, USA) combined with N2 pressure of 3–4 psi to produce laminar flow of the external solution onto the patched cell. All measurements were performed at room temperature. The currents were measured with an Axopatch 200B patch-clamp amplifier (Molecular Devices, Sunnyvale, CA, USA) and a Digidata 1440A interface (Molecular Devices). Acquisition of recording data was performed at 2.5 kHz and recordings were low-pass filtered at 1 kHz, through a four-pole Bessel filter. The pClamp 10 software (Molecular Devices) was used for data acquisition. […] Five-hundred milliseconds after the application started (which is also after the current reached to its peak at −60 mV), the voltage was stepped from −60 mV to −80 mV for 50 ms followed by a 250-ms-long voltage ramp ranging from −80 mV to +80 mV.
(§3) Dose-response curves were fitted to the data points by a nonlinear regression using the Hill Equation 1,

GluClαP192E/βWT receptor = target: T2, GluClαP192E/βWT receptor (Caenorhabditis elegans, UniProt G5EBR3+Q17328, P192E); test: Whole-cell patch clamp in CHO cells, GluClαP192E/βWT receptor; assay type: cell-based; settings: +60 mV
T2 construct: entry codes of the full-length subunits used in this study; expressed in transfected cells; host or cells: CHO cells, transient co-transfection 1:1, pcDNA3.1
T2 sequence (G5EBR3 21-461 P192E, one chain of several): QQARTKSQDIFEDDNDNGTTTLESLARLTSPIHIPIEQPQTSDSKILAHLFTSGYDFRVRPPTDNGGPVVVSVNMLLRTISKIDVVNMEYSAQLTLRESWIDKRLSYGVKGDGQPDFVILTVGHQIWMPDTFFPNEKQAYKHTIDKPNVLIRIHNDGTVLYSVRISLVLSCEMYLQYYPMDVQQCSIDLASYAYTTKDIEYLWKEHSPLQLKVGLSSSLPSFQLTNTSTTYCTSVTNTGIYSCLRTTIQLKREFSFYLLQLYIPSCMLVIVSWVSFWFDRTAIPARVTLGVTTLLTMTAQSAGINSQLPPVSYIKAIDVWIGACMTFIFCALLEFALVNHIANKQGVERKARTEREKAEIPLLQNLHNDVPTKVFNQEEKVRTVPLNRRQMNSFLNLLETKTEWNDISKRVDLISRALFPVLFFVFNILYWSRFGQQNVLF
Experimental: as §1, with “For high-level expression of the GluClαF276A/βWT mutant receptor in experiments assigned to determine its IVM-EC50, we used the X-tremeGENE HP DNA Transfection Reagent (Roche Life Science). Recordings were performed 72–96 h following the transfection.” left out
(§4) Whole-cell patch clamp recordings were performed as described previously (Bar-Lev et al., [2011]) in CHO cells that were prepared as detailed above. […] The currents were measured with an Axopatch 200B patch-clamp amplifier (Molecular Devices, Sunnyvale, CA, USA) and a Digidata 1440A interface (Molecular Devices). […]

GluClαP192M/βWT receptor = target: T3, GluClαP192M/βWT receptor (Caenorhabditis elegans, UniProt G5EBR3+Q17328, P192M); test: Whole-cell patch clamp in CHO cells, GluClαP192M/βWT receptor; assay type: cell-based; settings: +60 mV
T3 construct: entry codes of the full-length subunits used in this study; expressed in transfected cells; host or cells: CHO cells, transient co-transfection 1:1, pcDNA3.1
T3 sequence (G5EBR3 21-461 P192M, one chain of several): as the sequence (G5EBR3 21-461 P192E, one chain of several) above, with E172M counted along it
Experimental: as §1, with “For high-level expression of the GluClαF276A/βWT mutant receptor in experiments assigned to determine its IVM-EC50, we used the X-tremeGENE HP DNA Transfection Reagent (Roche Life Science). Recordings were performed 72–96 h following the transfection.” left out
as §4

GluClαP192Y/βWT receptor = target: T4, GluClαP192Y/βWT receptor (Caenorhabditis elegans, UniProt G5EBR3+Q17328, P192Y); test: Whole-cell patch clamp in CHO cells, GluClαP192Y/βWT receptor; assay type: cell-based; settings: +60 mV
T4 construct: entry codes of the full-length subunits used in this study; expressed in transfected cells; host or cells: CHO cells, transient co-transfection 1:1, pcDNA3.1
T4 sequence (G5EBR3 21-461 P192Y, one chain of several): as the sequence (G5EBR3 21-461 P192E, one chain of several) above, with E172Y counted along it
Experimental: as §1, with “For high-level expression of the GluClαF276A/βWT mutant receptor in experiments assigned to determine its IVM-EC50, we used the X-tremeGENE HP DNA Transfection Reagent (Roche Life Science). Recordings were performed 72–96 h following the transfection.” left out
as §4

GluClαY194R/βWT receptor = target: T5, GluClαY194R/βWT receptor (Caenorhabditis elegans, UniProt G5EBR3+Q17328, Y194R); test: Whole-cell patch clamp in CHO cells, GluClαY194R/βWT receptor; assay type: cell-based; settings: +60 mV
T5 construct: entry codes of the full-length subunits used in this study; expressed in transfected cells; host or cells: CHO cells, transient co-transfection 1:1, pcDNA3.1
T5 sequence (G5EBR3 21-461 Y194R, one chain of several): as the sequence (G5EBR3 21-461 P192E, one chain of several) above, with E172P, Y174R counted along it
Experimental: as §1, with “For high-level expression of the GluClαF276A/βWT mutant receptor in experiments assigned to determine its IVM-EC50, we used the X-tremeGENE HP DNA Transfection Reagent (Roche Life Science). Recordings were performed 72–96 h following the transfection.” left out
as §4

[2] = target: T6, GluClα[SSS→GSD]/βWT receptor (Caenorhabditis elegans, UniProt G5EBR3+Q17328, S236G/S238D); test: Whole-cell patch clamp in CHO cells, GluClα[SSS→GSD]/βWT receptor; assay type: cell-based; settings: +60 mV
T6 construct: entry codes of the full-length subunits used in this study; expressed in transfected cells; host or cells: CHO cells, transient co-transfection 1:1, pcDNA3.1
T6 sequence (G5EBR3 21-461 S236G/S238D, one chain of several): as the sequence (G5EBR3 21-461 P192E, one chain of several) above, with E172P, S216G, S218D counted along it
Experimental: as §1, with “For high-level expression of the GluClαF276A/βWT mutant receptor in experiments assigned to determine its IVM-EC50, we used the X-tremeGENE HP DNA Transfection Reagent (Roche Life Science). Recordings were performed 72–96 h following the transfection.” left out
as §4

GluClαE273R/βWT receptor = target: T7, GluClαE273R/βWT receptor (Caenorhabditis elegans, UniProt G5EBR3+Q17328, E273R); test: Whole-cell patch clamp in CHO cells, GluClαE273R/βWT receptor; assay type: cell-based; settings: +60 mV
T7 construct: entry codes of the full-length subunits used in this study; expressed in transfected cells; host or cells: CHO cells, transient co-transfection 1:1, pcDNA3.1
T7 sequence (G5EBR3 21-461 E273R, one chain of several): as the sequence (G5EBR3 21-461 P192E, one chain of several) above, with E172P, E253R counted along it
Experimental: as §1, with “For high-level expression of the GluClαF276A/βWT mutant receptor in experiments assigned to determine its IVM-EC50, we used the X-tremeGENE HP DNA Transfection Reagent (Roche Life Science). Recordings were performed 72–96 h following the transfection.” left out
as §4

GluClαF276A/βWT receptor = target: T8, GluClαF276A/βWT receptor (Caenorhabditis elegans, UniProt G5EBR3+Q17328, F276A); test: Whole-cell patch clamp in CHO cells, GluClαF276A/βWT receptor; assay type: cell-based
T8 construct: entry codes of the full-length subunits used in this study; expressed in transfected cells; host or cells: CHO cells, transient co-transfection, pcDNA3.1 (X-tremeGENE HP for the IVM-EC50 experiments)
T8 sequence (G5EBR3 21-461 F276A, one chain of several): as the sequence (G5EBR3 21-461 P192E, one chain of several) above, with E172P, F256A counted along it
Experimental: as §1, §2, §3

GluClαF276W/βWT receptor = target: T9, GluClαF276W/βWT receptor (Caenorhabditis elegans, UniProt G5EBR3+Q17328, F276W); test: Whole-cell patch clamp in CHO cells, GluClαF276W/βWT receptor; assay type: cell-based; settings: +60 mV
T9 construct: entry codes of the full-length subunits used in this study; expressed in transfected cells; host or cells: CHO cells, transient co-transfection 1:1, pcDNA3.1
T9 sequence (G5EBR3 21-461 F276W, one chain of several): as the sequence (G5EBR3 21-461 P192E, one chain of several) above, with E172P, F256W counted along it
Experimental: as §1, with “For high-level expression of the GluClαF276A/βWT mutant receptor in experiments assigned to determine its IVM-EC50, we used the X-tremeGENE HP DNA Transfection Reagent (Roche Life Science). Recordings were performed 72–96 h following the transfection.” left out
as §4

[3] = target: T10, GluClαWT (GLC-1) homomeric receptor (Caenorhabditis elegans, UniProt G5EBR3); set-up: method as in Degani-Katzav et al., [2016]; settings: CHO cells, αWT alone; ref Degani-Katzav et al., [2016]; cited from earlier work
T10 construct: entry codes of the full-length subunits used in this study; expressed in transfected cells; host or cells: CHO cells, transient transfection, pcDNA3.1
T10 sequence (G5EBR3 21-461): T1 sequence (G5EBR3 21-461)

[4] = target: T11, GluClβWT (GLC-2) homomeric receptor (Caenorhabditis elegans, UniProt Q17328); settings: CHO cells, βWT alone, ref Degani-Katzav et al., cited from earlier work
T11 construct: entry codes of the full-length subunits used in this study; expressed in transfected cells; host or cells: CHO cells, transient transfection, pcDNA3.1
T11 sequence (Q17328 23-434): T1 sequence (Q17328 23-434)

GluClαWT/βWT receptor [5] = target: T1, GluClαWT/βWT receptor; set-up: method as in Degani-Katzav et al., [2016]; settings: CHO cells co-transfected with WT α and β subunits; ref Degani-Katzav et al., [2016]; cited from earlier work
[6] = target: T12, C. elegans GluClβWT subunit (GLC-2) (C. elegans) (UniProt Q17328)
T12 sequence: T1 sequence (Q17328 23-434)

Molecule: N[C@@H](CCC(=O)O)C(=O)O [Glu, glutamate]
receptor population activated (GluClαWT/βWT receptor [1]; 0.3 mM Glu, calculated from the Glu dose-response curve): ~ 7%
Glu activation properties nH (Hill coefficient) (GluClαWT/βWT receptor [1]; CHO cells, +60 mV): 1.6 ± 0.1
Hill coefficient of activation by Glu after pre-exposure to IVM (GluClαWT/βWT receptor [1]; pre-exposure to 7 nM IVM): 1.2 ± 0.07
Glu activation properties nH (Hill coefficient) (GluClαP192E/βWT receptor): 1.5 ± 0.1
Glu activation properties nH (Hill coefficient) (GluClαP192M/βWT receptor): 1.6 ± 0.1
Glu activation properties nH (Hill coefficient) (GluClαP192Y/βWT receptor): 1.5 ± 0.1
Glu activation properties nH (Hill coefficient) (GluClαY194R/βWT receptor): 1.5 ± 0.1
Glu activation properties nH (Hill coefficient) [2]: 1.3 ± 0.1
Glu activation properties nH (Hill coefficient) (GluClαE273R/βWT receptor): 1.5 ± 0.1
receptor population activated (GluClαF276A/βWT receptor; 1 mM Glu): ~ 5%
Glu activation properties nH (Hill coefficient) (GluClαF276A/βWT receptor; CHO cells, +60 mV): 1.3 ± 0.1
Hill coefficient of activation by Glu after pre-exposure to IVM (GluClαF276A/βWT receptor; pre-exposure to 50 nM IVM): 1.5 ± 0.03
Glu activation properties nH (Hill coefficient) (GluClαF276W/βWT receptor): 1.5 ± 0.1
response to 10 mM Glu [3]: very weak responses
cells responding to 100 mM Glu ([4]; X-tremeGENE HP transfection, [2017]): 4 of 46
response to 10 mM Glu [4, 2016]: very weak, rare responses
response to Glu (GluClαWT/βWT receptor [5]): robust responses

B3: C. elegans GluClα (GLC-1) subunit, F276W (receptor)
chain: T1 sequence (G5EBR3 21-461) with F256W
whole-cell current amplitude in response to the Glu-EC50 concentration, CHO cells co-transfected with both subunits, +60 mV [6]: 3 nA

The next lines start with the values.

whole-cell current amplitude in response to the Glu-EC50 concentration, CHO cells co-transfected with both subunits, +60 mV [6]: 3.1 nA
B1: C. elegans GluClα (GLC-1) subunit, P192E (receptor)
chain: T1 sequence (G5EBR3 21-461) with P172E

whole-cell current amplitude in response to the Glu-EC50 concentration, CHO cells co-transfected with both subunits, +60 mV [6]: 3.1 nA
B2: C. elegans GluClα (GLC-1) subunit, F276A (receptor)
chain: T1 sequence (G5EBR3 21-461) with F256A
